Reference: patent publication US20080207592A1, “Novel 1,4-benzothiazepine-1,1-dioxide derivative having improved properties, method for the production thereof, medicaments containing said compound, and use thereof” (SANOFI-AVENTIS DEUTSCHLAND GMBH, priority 2005, published 2008)

Biological target: T1, recombinantly expressed human sodium-dependent ileal bile acid transporter (IBAT) (Homo sapiens, UniProt Q12908)
T1 construct: Bases 599 to 1645 correspond to the complete coding region of the human IBAT; expressed in transfected cells
T1 sequence (Q12908 1-348): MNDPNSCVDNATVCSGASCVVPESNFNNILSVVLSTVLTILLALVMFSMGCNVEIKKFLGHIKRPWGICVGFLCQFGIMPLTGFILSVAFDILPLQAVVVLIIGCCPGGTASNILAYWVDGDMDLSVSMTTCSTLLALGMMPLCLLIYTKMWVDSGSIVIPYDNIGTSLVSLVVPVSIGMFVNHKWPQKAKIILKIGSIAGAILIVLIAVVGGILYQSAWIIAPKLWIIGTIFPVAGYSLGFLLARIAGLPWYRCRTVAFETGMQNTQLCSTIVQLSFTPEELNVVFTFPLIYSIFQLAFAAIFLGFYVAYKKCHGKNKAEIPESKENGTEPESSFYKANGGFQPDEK
Assay: in vitro IBAT inhibition test ([3H]-taurocholic acid uptake into CHO-hIBAT cells)
Format: cell-based
Details: for IC50: CHO-hIBAT cells, taurocholic acid 10 μM, 60 min at room temperature
Experimental: Biological testing of the compound A according to the invention was carried out using the in vitro IBAT inhibition test. This test examines the effect of the compound according to the invention on the transport activity of the recombinantly expressed human sodium-dependent ileal bile acid transporter (IBAT=ileal Na^+/bile acid contransporter, ASBT=apical sodium-dependent bile acid transporter, SLC10A2=solute carrier family 10, member 2).
The cDNA (complementary deoxyribonucleic acid) of human IBAT was cloned using standard methods of molecular biology as described, for example, in Molecular Cloning: A Laboratory Manual, by Joseph Sambrook and David Russell, and introduced into the pcDNA1 vector from Invitrogen. […] Bases 599 to 1645 correspond to the complete coding region of the human IBAT.
The expression vector for the human IBAT was introduced by means of stable transfection into CHO (Chinese hamster ovary) cells. To select single cell clones, 400 μg/ml of geneticin was added to the cell culture medium (Ham's F12 medium supplemented with 10% fetal calf serum, 100 units/ml of penicillin, 100 units/ml of streptomycin). The functionality of the single cell clones resulting from the selection was tested via their uptake activity for radioactively labeled taurocholic acid ([^3H]-TCA). […]
CHO-hIBAT cells were sown at a concentration of 40 000 cells per well in cell culture medium in poly-D-lysine-coated 96-well plates and cultivated for 24 h. […] Finally, 100 μl of scintillation fluid were added to each well, and the radioactivity taken up into the cells was determined in a MicroBeta scintillation microplate reader from Wallac.
The half-maximal inhibitory effect of the test compound (IC50 value, inhibitory concentration 50) was determined as follows:
1. […] This is the value measured in the absence of substance, measured in sodium-comprising transport assay buffer.
2. […] This is the value measured in the absence of substance, measured in sodium-free transport assay buffer. […]

With `CCCCC1(CCCC)CS(=O)(=O)c2ccc(N(C)C)cc2[C@@H](c2cccc(NC(=O)NC[C@H](O)[C@@H](O)[C@H](O)[C@H](O)CO)c2)N1` [Example A] the IC50 was 155 nM and the “activity compared to comparative example from EP 1 169 313 (higher)” value (relative to compound 11a of EP 1 169 313, from IC50 (human IBAT)) was 206%.
`CCCCC1(CCCC)CS(=O)(=O)c2ccc(N(C)C)cc2[C@@H](c2cccc(NC(=O)[C@H](O)[C@@H](O)[C@H](O)[C@H](O)CO)c2)N1` [compound 11a, reference compound] gave an IC50 of 319 nM.
